Measured values as given in patent US4730042A, “Compounds 1 or 3-hydroxy-4-benzyl-6-methyl-7-(4-isopropylamino-butoxy)-1,3-dihydro[3,4- C]pyridine and 2-methyl-3-(4-isopropyl-aminobutoxy)-4-(1'-morphilinomethyl)-5-hydroxyme thyl-6-benzyl pyridine, useful for treating cardiac arrhythmias” (priority 1985, dated 1988).

Tests used:
[1] = tested on: aconitine-induced arrhythmia; test: Antiarrhythmic effect on the aconitine-induced arrhythmia in anesthetized rats; format: in vivo, male Sprague-Dawley rats; conditions: for ED50: Rattus norvegicus, iv, read-out: Antiarrhythmic effect ED 50; for Antiarrhythmic effect, maximum effect / maximum effect compared with barucainid, in words: rat; for Antiarrhythmic effect, maximum effect: i.v., maximum relative increase in the arrhythmogenic aconitine dose; for maximum effect compared with barucainid, in words: versus barucainid
Description: The novel compounds have a powerful antiarrhythmic action and are useful for the therapy of cardiac arrhythmias. The pharmacological investigations to determine the antiarryhythmic action were carried out using the antiarrhythmic barucainid as a comparison.
(§1) The test animals used were male Sprague-Dawley rats weighing 180-300 g. Anesthesia was effected with 100 mg/kg of thiobutabarbital, administered intraperitoneally. To induce arrhythmias, aconitine was infused at a dosage rate of 5 μg per kg per min. The test substances were administered intravenously, directly before the beginning of the aconitine infusion. The parameter measured is the amount of aconitine which leads to the first signs of arrhythmias (disappearance of P, ventricular extrasystoles and tachycardia) in the ECG of the animals. In the case of untreated animals, the arrhythmogenic aconitine dose was 16.5±0.34 μg/kg (n=120). The dose which causes a 50% increase was determined from the linear relationship between log dose (mg/kg) of the test substances and the relative increase in the arrhythmogenic aconitine dose (Δ%).
The maximum effect achieved (Δ%) is evaluated as a further criterion of the antiarrhythmic efficacy.

[2] = Toxic changes in the ECG and therapeutic index in the rat; format: in vivo; conditions: in vivo, iv, quotient of ECG-toxic dose and antiarrhythmic ED 50
Description: as §1
(§2) The dose of test substance which causes toxic changes in the ECG (ST depression, disappearance of P, extrasystoles) was also determined. The quotient of the ECG-toxic dose and the antiarrhythmic ED 50 was evaluated as a measure of the therapeutic index of the novel compounds.

[3] = tested on: ECG (ST depression, disappearance of P, extrasystoles); test: as above; format: in vivo; conditions: i.v., toxic effect in the ECG (occurrence of extrasystoles)
Description: as §1, §2

Row | Structure (SMILES) | ED50 [1] [mg/kg] | Antiarrhythmic effect, maximum effect [1] | selectivity ratio [2] | ECG-toxic dose [3] [mg/kg] | maximum effect compared with barucainid, in words [1]
1 | Cc1nc(Cc2ccccc2)c2c(c1OCCCCNC(C)C)COC2 [Barucainid, reference compound] | 1.95 | 105 Δ % | 5.13 | 10.0 | –
2 | Cc1nc(Cc2ccccc2)c(CO)c(CN2CCOCC2)c1OCCCCNC(C)C.Cl.Cl.Cl [Example 1, 2-methyl-3-(4-isopropylaminobutoxy)-4-(1'-morpholinomethyl)-5-hydroxymethyl-6-benzylpyridine trihydrochloride] | 0.19 | 111 Δ % | 11.3 | 2.15 | –
3 | Cc1nc(Cc2ccccc2)c2c(c1OCCCCNC(C)C)C(O)OC2.Cl.Cl (centres unmarked) [Example 2, 1-hydroxy-4-benzyl-6-methyl-7-(4-isopropylaminobutoxy)-1,3-dihydrofuro[3,4-C]pyridine dihydrochloride] | 0.468 | 239 Δ % | > 9.9 | > 4.64 | superior to barucainid
4 | Cc1nc(Cc2ccccc2)c2c(c1OCCCCNC(C)C)COC2O.Cl.Cl (centres unmarked) [Example 3, 3-hydroxy-4-benzyl-6-methyl-7-(4-isopropylaminobutoxy)-1,3-dihydrofuro[3,4-C]pyridine dihydrochloride] | 0.695 | 276 Δ % | 14.4 | 10 | superior to barucainid
5 | Cc1nc(Cc2ccc(O)cc2)c2c(c1OCCCCNC(C)C)COC2 [Example 4, 4-(p-hydroxybenzyl)-6-methyl-7-(4-isopropylaminobutoxy)-1,3-dihydrofuro[3,4-C]pyridine] | 2.69 | 263 Δ % | 17.3 | 46.4 | superior to barucainid
